# Results taken from patent US20200247859A1, “CONSTRUCT FOR EXPRESSING G PROTEIN-COUPLED RECEPTOR OR SUBUNIT THEREOF, AND USE OF SAID CONSTRUCT” (JAPAN TOBACCO INC., priority 2017, published 2020).
# Where two headings read alike, the source gives them in different places.
# Columns and labels:
# [1] = target: T2R38 subtype (bitter taste receptor) (Homo sapiens, UniProt P59533, A49P/I296V); settings: Gα-T2R38 stable expression cell line, FIG. 18
# Experimental: A Gα-T2R38 expression vector comprising a gene encoding a T2R38 subtype (bitter taste receptor) instead of the gene encoding T2R16 of Gα-T2R16 in Examples 1 and 2 was prepared, and thus a stable expression cell line was prepared by the same method as in Examples 1 and 2.
# Subsequently, using the same method as in Example 3, the response to a known T2R38 agonist, 6-n-propylthiouracil (1000 μM, 300 μM), was measured. As a control, a cell line (HEK293T) not incorporating any Gα-T2R38 expression vector was used.
# T2R40 = target: T1, T2R40 (Homo sapiens, UniProt P59535); experiment: Response of Gα-T2R40 stable expression cell line to agonist (Fluo-8 calcium fluorescence); type: cell-based; settings: Gα-T2R40 compared with T2R40-Gα; agonist 100 μM or 300 μM; FIG. 3
# T1 construct: expressed in transfected cells
# Experimental: (§1) Specifically, by the same method as in Example 1 and Example 2, a Gα-T2R40 stable expression cell line (containing Gα16/Gαgust43-IRES-ssr/T2R40N5) and a Gα-T2R43 stable expression cell line (containing Gα16/Gαgust43-IRES-ssr/T2R43/V5) were prepared.
# (§2) The Gα-T2R40 stable expression cell line and the Gα-T2R43 stable expression cell line were prepared by the same method as in Example 2. […] The results are depicted in FIG. 3.
# [2] = target: T2, olfactory receptor (OR3A1) (Homo sapiens, UniProt P47881); experiment: cAMP response in cells transiently expressing olfactory receptor (cAMP-GloMax luminescence); type: cell-based; settings: FIG. 20
# T2 construct: N-terminal 21 amino acids of human rhodopsin (Rho); expressed in transfected cells; host or cells: HEK293T, transient, pcDNA vectors
# T2 sequence (P47881 2-315 limits assumed): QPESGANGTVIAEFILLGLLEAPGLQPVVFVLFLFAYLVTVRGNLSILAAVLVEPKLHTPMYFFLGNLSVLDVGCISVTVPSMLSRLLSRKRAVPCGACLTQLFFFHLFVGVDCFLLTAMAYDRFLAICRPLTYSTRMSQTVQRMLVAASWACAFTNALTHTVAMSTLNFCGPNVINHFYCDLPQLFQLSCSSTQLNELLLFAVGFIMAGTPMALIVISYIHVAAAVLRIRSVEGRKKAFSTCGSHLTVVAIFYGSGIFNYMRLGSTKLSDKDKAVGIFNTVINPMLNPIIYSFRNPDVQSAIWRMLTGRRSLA
# Experimental: Genes encoding Rho-OR3A1, in which N-terminal 21 amino acids (Rho) of human rhodopsin had been added to the N-terminus of OR3A1, and Gαolf were introduced together with IRES into pcDNA vectors by the same method as in Example 1, thereby preparing expression vectors, OR3A1-Gαolf and Gαolf-OR3A1. Using these expression vectors, transiently expressing HEK293T cells were prepared by the same method as in Example 4. As a control, HEK293T cells prepared by separate introduction of each gene of OR3A1 and Gαolf into pcDNA and then double-gene transfer thereof were used.
# Next, helional, a known agonist for OR3A1, was added onto the prepared cells (100 μM, 30 μM). The amount of cAMP produced in association with the response of OR3A1 20 minutes after the addition of helional was detected by luminescence measurement using a cAMP-GloMax assay kit (Promega).
# T2R43 = target: T3, T2R43 (Homo sapiens, UniProt P59537, H212R/W35S); experiment: Response of Gα-T2R43 stable expression cell line to agonist (Fluo-8 calcium fluorescence); type: cell-based; settings: Gα-T2R43 compared with T2R43-Gα; agonist 100 μM or 300 μM; FIG. 3
# T3 construct: expressed in transfected cells
# T3 sequence (P59537 1-309 W35S/H212R): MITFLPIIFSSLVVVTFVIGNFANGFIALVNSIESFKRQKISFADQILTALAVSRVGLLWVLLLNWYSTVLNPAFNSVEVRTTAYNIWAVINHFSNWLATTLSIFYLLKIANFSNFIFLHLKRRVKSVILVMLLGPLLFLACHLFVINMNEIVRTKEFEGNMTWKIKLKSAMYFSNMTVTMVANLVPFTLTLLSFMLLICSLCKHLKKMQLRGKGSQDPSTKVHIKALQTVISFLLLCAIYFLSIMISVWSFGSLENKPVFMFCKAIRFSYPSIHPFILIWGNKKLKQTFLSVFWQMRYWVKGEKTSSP
# Experimental: as §1, §2
# T2R16 [3] = target: T4, T2R16 (Homo sapiens, UniProt Q9NYV7); experiment: Response of T2R16 transiently expressing cells to bitter substance; type: cell-based; settings: transient Gα-T2R16 in HEK293T compared with T2R16-Gα, co-transfection and Gα stable; FIG. 4
# T4 construct: expressed in transfected cells
# T4 sequence (Q9NYV7 1-291): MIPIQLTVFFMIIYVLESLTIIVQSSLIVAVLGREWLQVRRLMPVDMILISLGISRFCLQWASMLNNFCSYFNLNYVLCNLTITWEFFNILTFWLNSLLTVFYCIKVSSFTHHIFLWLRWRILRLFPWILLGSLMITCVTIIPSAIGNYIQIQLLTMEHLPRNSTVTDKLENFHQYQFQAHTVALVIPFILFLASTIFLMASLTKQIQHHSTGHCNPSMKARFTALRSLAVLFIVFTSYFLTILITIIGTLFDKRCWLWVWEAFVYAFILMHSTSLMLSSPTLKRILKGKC
# Experimental: Into HEK293T seeded at 2×10^4 in a 96-well plate, 0.1 μg of each of the Gα-T2R16 and the T2R16-Gα plasmid vectors was introduced using lipofectamine (registered trademark) 3000. After 30 hours of culture, response intensity to salicin was measured using the same technique as in Example 3 (1) (maximum fluorescence intensity during 40 seconds after the addition of salicin). Note that drug resistance screening with hygromycin B as in Example 2 was not performed (transiently expressing cells).
# Furthermore, as a comparative example, the following cells were also prepared other than T2R16-Gα expressing cells, and then the response to salicin was measured:
# cells (cotransfection), prepared by simultaneous gene transfer of a total of 0.1 μg of a Gα16/Gαgust43gust expression vector and a ssr-T2R16-V5 expression vector comprising a Gα16/Gαgust43 expression gene and a ssr-T2R16-V5 expression gene, respectively, via incorporation thereof into pcDNA3.1 Hygro(+) vectors for transient expression of the genes; and
# cells (Gα stable), prepared by the gene transfer of 0.1 μg of a ssr-T2R16-V5 expression vector into a Gα16/Gαgust43 stable expression cell line (subjected in advance to drug resistance screening using hygromycin B) prepared by the same technique as in Example 2 for transient expression of the genes.
# [4] = target: T5, human bitter taste receptor (T2R16) (Homo sapiens, UniProt Q9NYV7); experiment: Response of T2R16 stable expression cell line to bitter substance (Fluo-8 calcium fluorescence); type: cell-based; settings: salicin 10, 3, 1, 0.3 or 0.1 mM, FIG. 2
# T5 construct: N-terminal 45 amino acids of rat somatostatin receptor 3 (ssr3); expressed in transfected cells
# T5 sequence (Q9NYV7 1-291): T4 sequence (Q9NYV7 1-291)
# Experimental: Specifically, into 1×10^6 cells of the human embryonic kidney cell line HEK293T (obtained from RIKEN) seeded in a culture vessel, 5 μg of each of the Gα-T2R16 and T2R16-Gα plasmid vectors prepared in Example 1 was introduced through the use of lipofectamine (registered trademark) 3000 (Thermo Fisher Scientific Inc.). After 48 hours of culture, drug resistance screening was performed by adding 100 μg/mL hygromycin B to the medium and then culturing for about 15 days. Cells that had acquired drug resistance were cloned by seeding these cells in each well of a 96-well plate at one cell per well. After about 10 days of culture, a stable expression cell line was obtained.
# The T2R16 stable expression cell line prepared based on the method described in Example 2 was seeded at 2×10^4 cells/well in a 96-well plate. The culture media for cells contained a green fluorescent calcium indicator Fluo-8 (registered trademark) (AAT Bioquest, Inc.), and the uptake of Fluo-8 into the cell lines was examined. Fluo-8 (registered trademark) is suitable for detection of intracellular calcium dynamics and is an indicator of GPCR activity.
# Cells incorporating Fluo-8 (registered trademark) were excited at 490 nm and the fluorescence intensity at 514 nm was measured. […] The results are depicted in FIG. 2.
# T2R16 [5] = target: T4, T2R16; experiment: Response intensity before and after cryopreservation of T2R16 stable expression cell line; type: cell-based; settings: FIG. 7
# Experimental: Gα-T2R16 in this example was prepared in the same manner as in the case of the Gα-T2R16 stable expression cell line in Example 2, but pEAK10 (Edge biosystem, Inc.) was used as an expression vector and “ssr/T2R16” (without V5) was inserted instead of “ssr/T2R16/V5”. Further, drug resistance screening was performed with 1 μg/mL puromycin instead of hygromycin B.
# As a comparative example, into the Gα16/Gαgust43 stable expression cell line (subjected in advance to drug resistance screening with puromycin) prepared using the same technique as in Example 2, 5 μg of ssr-T2R16 expression vector was introduced and then drug resistance screening was performed using puromycin. The thus prepared stable expression cell line (Double stable) stably expressing Gα16/Gαgust43+T2R16 was used.
# Before and after cryopreservation of the cell line, the response intensity to salicin (1 or 0.1 mM) was examined in the same manner as in Example 3. For cryopreservation, CELLBANKER (Nippon Zenyaku Kogyo Co., Ltd.) was used, and cells were stored under liquid nitrogen for 1 month. The temperature for the cryopreserved cells was brought back to normal temperature, cells were passaged at least twice, and then the response intensity after cryopreservation was measured. The results are depicted in FIG. 7.
# Sequence of T2R38 subtype (bitter taste receptor) (P59533 whole entry A49P/I296V): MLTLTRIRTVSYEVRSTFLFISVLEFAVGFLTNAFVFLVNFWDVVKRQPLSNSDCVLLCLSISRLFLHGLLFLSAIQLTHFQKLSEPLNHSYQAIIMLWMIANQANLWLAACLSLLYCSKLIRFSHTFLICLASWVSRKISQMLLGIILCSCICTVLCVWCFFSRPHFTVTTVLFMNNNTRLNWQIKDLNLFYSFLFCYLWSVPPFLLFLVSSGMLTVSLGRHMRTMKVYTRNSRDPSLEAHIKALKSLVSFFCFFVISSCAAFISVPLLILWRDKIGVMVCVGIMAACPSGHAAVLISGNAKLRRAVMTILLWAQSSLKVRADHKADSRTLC
# T1 sequence (P59535 whole entry): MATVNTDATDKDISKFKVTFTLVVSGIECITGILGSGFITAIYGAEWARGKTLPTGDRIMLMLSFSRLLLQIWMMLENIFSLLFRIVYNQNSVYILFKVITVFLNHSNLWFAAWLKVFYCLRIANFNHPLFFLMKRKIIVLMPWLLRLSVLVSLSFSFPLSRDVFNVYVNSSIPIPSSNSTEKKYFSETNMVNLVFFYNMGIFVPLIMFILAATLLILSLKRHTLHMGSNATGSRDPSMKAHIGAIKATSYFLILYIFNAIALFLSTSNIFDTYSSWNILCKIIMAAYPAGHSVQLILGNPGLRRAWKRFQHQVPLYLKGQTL
compound,measurement,setting,value
CCCc1cc(=O)[nH]c(=S)[nH]1 [6-n-propylthiouracil],response to T2R38 agonist,[1]; 300 μM,exhibited
same,response to T2R38 agonist,[1]; 1000 μM,exhibited
OC(CCCN1CCCCC1)(c1ccccc1)c1ccccc1 [diphenydol],response intensity of T2R40 to the agonist,T2R40,higher response intensity
CC(C=O)Cc1ccc2c(c1)OCO2 (centres unmarked) [helional],amount of cAMP produced in association with the response of OR3A1,"[2]; HEK293T cells with Gαolf-OR3A1 expression vector, 100 μM helional, 20 minutes after addition",increase in cAMP
same,amount of cAMP produced in association with the response of OR3A1,"[2]; HEK293T cells with OR3A1-Gαolf expression vector, helional 100 μM, 30 μM, 20 minutes",no response
same,amount of cAMP produced in association with the response of OR3A1,"[2]; HEK293T cells with OR3A1 and Gαolf genes introduced separately, helional 100 μM, 30 μM, 20 minutes",no response
C=C[C@H]1C[N@@]2CC[C@H]1C[C@H]2[C@H](O)c1ccnc2ccc(OC)cc12 [quinine],response intensity of T2R43 to the agonist,T2R43,higher response intensity
OCc1ccccc1O[C@@H]1O[C@H](CO)[C@@H](O)[C@H](O)[C@H]1O [salicin],response intensity to salicin,T2R16 [3],response intensity higher
same,response intensity of T2R16 to the agonist (increase rate of maximum fluorescence intensity),[4]; HEK293T stable cell line containing the Gα-T2R16 plasmid,exhibited responses
same,response intensity of T2R16 to the agonist (increase rate of maximum fluorescence intensity),[4]; cell line containing the comparative T2R16-Gα plasmid,almost no response
same,ratio of response intensity after freezing/response intensity before freezing,"T2R16 [5]; Gα-T2R16 stable expression cell line (pEAK10), salicin 0.1 mM, 1 month under liquid nitrogen",≥ 0.8
same,ratio of response intensity after freezing/response intensity before freezing,"T2R16 [5]; Gα-T2R16 stable expression cell line (pEAK10), salicin 1 mM, 1 month under liquid nitrogen",≥ 0.8
same,ratio of response intensity after freezing/response intensity before freezing,"T2R16 [5]; comparative Double stable cell line (Gα16/Gαgust43+T2R16), salicin 0.1 mM",≤ 0.4
same,ratio of response intensity after freezing/response intensity before freezing,"T2R16 [5]; comparative Double stable cell line (Gα16/Gαgust43+T2R16), salicin 1 mM",less than 0.6
